Experimental data published in US12502416B1, “PAM3CSK4 injection for the prevention and management of MASLD” (DASMAN DIABETES INSTITUTE, priority 2025, dated 2025).
Ends that are not written are not given here. * marks the point of attachment. X1 = 2,3‑bis(palmitoyloxy)‑(2RS)‑propyl, CCCCCCCCCCCCCCCC(=O)OCC(C*)OC(=O)CCCCCCCCCCCCCCC; Palmitoyl = CCCCCCCCCCCCCCCC(=O)*

Tests used:
Assay type in all cases: in vivo
[1] = test system: C57BL/6 mice on high-fat diet (liver steatosis); experiment: Liver section histology (H&E) in high-fat diet mice with liver steatosis; conditions: obese HFD mice with steatosis, 10 μg/kg IP every other day for two weeks
Procedure: (§1) In the experiment, 8-10 weeks-old male mice (n−20) were fed a high-fat diet (60% fat). […] These mice were randomly divided into 2 groups. Mice in Group 1(n−10) received injections of 0.9% normal saline (vehicle) every other day for a duration of two weeks. Mice in Group 2 (n−10) received injections of Pam3CSK4 (SEQ ID NO: 1) (drug:10 μg/kg; IP) every other day for a duration of two weeks. Throughout the treatment period, mice were kept on a high-fat diet. A) Liver sections of the mice were stained with H&E. Referring to FIG. 2, fasting blood glucose was reduced in the mice treated with Pam3CSK4 (SEQ ID NO: 1) compared to mice treated with a vehicle. […] By non-limiting example, a vehicle may be saline, a sugar water solution, or other similar substances that may be injected without affecting the subject directly. Data is presented as mean±SD.

[2] = test system: C57BL/6 mice on high-fat diet (impaired glucose homeostasis); experiment: Fasting blood glucose in high-fat diet mice; conditions: HFD mice; 10 μg/kg IP every other day for two weeks; compared to vehicle (FIG. 2)
Procedure: as §1

PPAR-γ = experiment: Liver PPAR-γ expression by qRT-PCR in high-fat diet mice; conditions: HFD mice; 10 μg/kg IP every other day for two weeks; liver total RNA, qRT-PCR (FIG. 3A)
Procedure: (§2) Referring to FIGS. 3A-3B, 8-10 weeks-old male mice (n−20) were fed a high-fat diet (60% fat). […] These mice were randomly divided into 2 groups. Mice in Group 1 (n=10) received injections of 0.9% normal saline (vehicle) every other day for a duration of two weeks. Mice in Group 2 (n=10) received injections of Pam3CSK4 (SEQ ID NO: 1) (drug:10 μg/kg; IP) every other day for a duration of two weeks. Throughout the treatment period, mice were kept on a high-fat diet. Total RNA was extracted from livers and expression of PPAR-γ (FIG. 3A) and CD36 (FIG. 3B) was determined by qRT-PCR. Data presents as mean±SD.

CD36 = experiment: Liver CD36 expression by qRT-PCR in high-fat diet mice; conditions: HFD mice; 10 μg/kg IP every other day for two weeks; liver total RNA, qRT-PCR (FIG. 3B)
Procedure: as §2

Pam3CysSerLys4 (Palmitoyl-C(X1)SKKKK) [Pam3CSK4, a synthetic triacylated lipopeptide (LP) and a TLR2/TLR1 ligand]
normal liver without any fat in treated mice [1]: 100% | hepatic fat accumulation ([1]; vs vehicle): effectively reduces hepatic fat accumulation | fasting blood glucose (FBG) [2]: reduced | PPAR-γ expression in the liver (PPAR-γ): suppressed | CD36 expression in the liver (CD36): suppressed
